# Tests used:
# [1] = system: human MCF-7 breast tumor cells; conditions: MCF-7 cells in alginate-poly-L-lysine-alginate microcapsules, MTT assay; cited from earlier work
# [2] = system: LCC6/Her2 breast tumor cells; assay: in vitro; format: cell-based
# Experimental: (§1) Doxorubicin (Dox) is an anthracycline molecule that intercalates in DNA and inhibits topoisomerase II. As an anticancer agent, the drug inhibits RNA and DNA synthesis. During on-chip drug testing, the Dox solution was prepared with 0.2% dimethylsulfoxide (DMSO) and DMEM culture medium. After visual confirmation of spheroid formation at four days, the drug-free culture media was replaced with 400, 800, 1200, and 1600 nM Dox solutions. The drug solution was continuously perfused through the device at a rate of 0.25 μl min^−1 for two days. DMSO controls, in which the corresponding amount of DMSO in culture medium with no drug, were also carried out. Toxicity was examined after 48 h of drug dosing by quantifying cell viability.
# (§2) Cell viability was indicated with live/dead calcein AM/ethidium homodimer-1 stains (Invitrogen), which were applied through pressure-driven flow control to the cells while they were entrapped in alginate in the microdevice. […]
# (§3) All stained samples were imaged using fluorescence microscopy. […] The number of living cells NG was calculated by counting the number of pixels in the green (living cells) channel in the confocal images and normalizing for the size of one cell. The number of dead cells NR was similarly calculated using the red pixels. […]
# (§4) The survival rate was calculated as NG/(NG+NR). The proliferation rate is calculated as (N4−N1)/N1 before drug treatment, and as (N6−N4)/N4 after drug treatment, where Nx is the number of cells on the xth day.
# (§5) Images from confocal microscopy were used to determine cell survival rate and proliferation inside the three dimensional multicellular aggregates after exposure to different doxorubicin concentrations. […] Doxorubicin was the perfused with (a) 0, (b) 400, (c) 800, (d) 1200, and (e) 1600 nM doxorubicin for two days, and cell viability was measured at the end of that period after staining with a live/dead viability kit and confocal imaging. […] The number of living cells NG was calculated by counting the number of pixels (living cells) channel in the confocal image and normalizing for the size of one cell. […]
# [3] = at 25° C.; cited from earlier work
# in vitro = format: cell-based; conditions: human
# Experimental: as §1, §2, §3, §4, §5
# A549 human lung cells = conditions: cited from earlier work
# [4] = system: EMT-6 mammary sarcoma cells; conditions: EMT-6 spheroids created in a spinner flask, different exposure doses; cited from earlier work
# [5] = system: LCC6/Her2 breast tumor cells; assay: Cell proliferation rate of tumor spheroids on-chip from confocal cell counts; format: cell-based, human; conditions: 1600 nM Dox exposure, 2 days
# Experimental: as §1
# as §3, with “microscopy. The imaging system consisted of a fluorescent microscope (Nikon TE2000U) and a cooled, color CCD camera (Retiga).” for “microscopy.”
# The survival rate was calculated as NG/(NG+NR). The proliferation rate is calculated as (N4−N1)/N1 before drug treatment, and as (N6−N4)/N4 after drug treatment, where Nx is the number of cells on the xth day. […]
# LCC6/Her2 cells = assay: MTS assay of cell activity, cells cultured within alginate gel beads; format: cell-based, human; conditions: 48 h treatment with 800 nM doxorubicin
# Experimental: as §1
# For LCC6/Her2 cells cultured within alginate gel beads 100, cell activity as measured using the standard MTS assay was 35%, while cell viability as measured using the Live/Dead stains was 83%, in both cases after 48 h treatment with 800 nM doxorubicin. […] Thus, the absolute number of surviving cells, in addition to the percentage of living or dead cells, may be an important parameter in drug screening. This can be obtained by processing the data from image-based high-throughput screening systems.
smiles,measurement,setting,value
O=c1[nH]cc(F)c(=O)[nH]1 [5-fluorouracil],inhibition rates in multicellular spheroids versus monolayers,[1],lower inhibition rates in multicellular spheroids than in monolayers
"CCCCCCCCCCCCCCCC [Hexadecane, n-hexadecane]","additional toxicity from droplet formation solvent (survival rate, bead versus microchannel)",[2],did not indicate any additional toxicity effects
same,solubility in the aqueous phase,[3],9.0×10^−8 g/100 g water
"COc1cccc2c1C(=O)c1c(O)c3c(c(O)c1C2=O)C[C@@](O)(C(=O)CO)C[C@@H]3O[C@H]1C[C@H](N)[C@H](O)[C@H](C)O1 [doxorubicin, Doxorubicin]","cytotoxicity at 48 h, 1600 nM",in vitro,20%
same,"viability at 48 h, 800 nM",in vitro,83%
same,"multicellular resistance index, ratio [IC50, spheroid/IC50, monolayer]",A549 human lung cells,35
same,resistance of spheroids versus monolayer cells,[4],higher resistance
same,inhibition rates in multicellular spheroids versus monolayers,[1],lower inhibition rates in multicellular spheroids than in monolayers
same,proliferation rate change (FIG. 10),[5],marked proliferation decrease
same,cell activity as measured using the standard MTS assay,LCC6/Her2 cells,35%
CO[C@@]12[C@H](COC(N)=O)C3=C(C(=O)C(C)=C(N)C3=O)N1C[C@@H]1N[C@@H]12 [mitomycin C],inhibition rates in multicellular spheroids versus monolayers,[1],lower inhibition rates in multicellular spheroids than in monolayers
CC[C@]1(O)C[C@@H]2CN(CCc3c([nH]c4ccccc34)[C@@](C(=O)OC)(c3cc4c(cc3OC)N(C)[C@H]3[C@@](O)(C(=O)OC)[C@H](OC(C)=O)[C@]5(CC)C=CCN6CC[C@]43[C@@H]65)C2)C1 [vinblastine],"multicellular resistance index, ratio [IC50, spheroid/IC50, monolayer]",A549 human lung cells,6625
